Results on one compound are retold here after PMC11796312, “Multifunctional, Fluorene‐Based Modulator of Cholinergic and GABAergic Neurotransmission as a Novel Drug Candidate for Palliative Treatment of Alzheimer's Disease” (Angewandte Chemie (International Ed. in English), 2024).

Molecules are shown by their SMILES. pIC50, pKi: −log10 of the molar value. Read-outs that look alike come from different tables or passages of the source.

A word on the pIC50: it is −log10 of the IC50, conventionally taken in molar units. Broadly, the pKi is the Ki on a negative log10 scale, so that one unit is a factor of ten. One may read the viability as a per cent measure of how many cells are alive, often set against a control.

For one data set, the target named is T1, mGAT2 (Mus musculus, UniProt P31651).
T1 sequence (P31651 1-614): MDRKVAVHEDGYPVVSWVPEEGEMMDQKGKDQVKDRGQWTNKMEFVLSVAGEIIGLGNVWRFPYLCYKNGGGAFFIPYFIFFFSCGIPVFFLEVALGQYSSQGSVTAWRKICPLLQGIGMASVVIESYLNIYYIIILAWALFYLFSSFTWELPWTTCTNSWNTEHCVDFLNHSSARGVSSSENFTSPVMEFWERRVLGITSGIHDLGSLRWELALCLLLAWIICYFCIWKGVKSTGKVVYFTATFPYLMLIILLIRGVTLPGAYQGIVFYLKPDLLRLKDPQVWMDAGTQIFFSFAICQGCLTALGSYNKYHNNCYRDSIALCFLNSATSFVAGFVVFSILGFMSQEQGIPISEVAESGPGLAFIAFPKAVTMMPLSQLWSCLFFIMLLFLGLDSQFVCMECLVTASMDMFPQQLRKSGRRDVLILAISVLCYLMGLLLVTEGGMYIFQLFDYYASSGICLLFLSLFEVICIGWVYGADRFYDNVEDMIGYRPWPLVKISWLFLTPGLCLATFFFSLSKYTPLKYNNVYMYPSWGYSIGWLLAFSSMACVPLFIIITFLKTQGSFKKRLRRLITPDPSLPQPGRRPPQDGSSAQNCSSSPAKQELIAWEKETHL
The data set is described as follows: [3H]GABA uptake assay, mGAT2. Format: cell-based.

Another data set deals with mGAT1 (Mus musculus, UniProt P31648). The data set is described as follows: MS Binding Assay with NO 711 as marker.
Data set [1] can be described thus: Cell viability, PrestoBlue (neurotoxicity). The format is cell-based. The settings on record: mouse, 24 h, read-out: viability, neurotoxicity X [%]. Here is the method:
(§1) Mouse Hippocampal Neuronal (HT-22) were cultured in Dulbecco's modified Eagle's Medium - high glucose (DMEM, Glutamx Thermo Fisher) supplemented with 10% inactivated fetal bovine serum heat (Thermo Fisher), 100 IU/ml penicillin (Sigma Aldrich) and 100 µg/ml streptomycin (Merck). Cells were cultured in flasks (area 75 cm2, Nunc), and incubated at 37°C, 5% CO2. For the measurement of cell viability cells were placed in a 96-well culture plate (2x10^4 cells per well, Falcon). Before the tests, cells were grown for 24 hours in the incubator (37°C, 5% CO2).
(§2) Preparation of stock solutions of tested compounds
(§3) Stock solutions were prepared in the concentration of 10 mM for test and reference compounds. Minimum 1 mg of each tested compound was weighed and dissolved in appropriate volume of dimethyl sulfoxide. Serial dilutions were prepared in DMSO and then the diluted compounds were transferred to PBS. Before assays eventual precipitation or opalescence was checked. All experiments were performed in duplicates, in three independent experiments. Cell viability was measured after 24 hours of incubation with tested cell line.
(§4) Cell viability was evaluated using the Presto Blue reagent (Thermo Fisher), according to the manufacturer procedures. Following 24 hours of incubation with the tested molecule, PrestoBlue reagent was added to a microplate well in an amount equal to one tenth of the remaining medium volume. The resulting mixture was incubated for 15 minutes at 37°C, and the fluorescence intensity (EX 530; EM 580 nm) was measured in the plate reader POLARstar Omega, (BMG Labtech). The results (viability values) are provided as a percentage of live cells with respect to DMSO (control sample).
(§5) Viability values were calculated as a percentage of live cells with respect to the control sample (DMSO). The negative control was medium without cells. IC 50 was determined by […]
(§6) nonlinear regression analysis using GraphPad Prism 9.0 software. All values are expressed as […]
(§7) Table S10. The viability of cells. neurotoxicity immuntoxicity
(§8) The results (viability values) are provided as a percentage of live cells with respect to DMSO (control sample)
(§9) Table S11. The viability of cells.

For data set [2], the system named is Mouse Hippocampal Neuronal (HT-22). Description: Cell viability, PrestoBlue (neurotoxicity). The format is cell-based. Conditions: Mus musculus, HT-22, 24 h. The procedure:
as §1, §2, §3, §4, §5, §6, §7, §8, §9

On to `O[C@H](CNCC1CC1)[C@H](Cc1ccccc1)NC1c2ccccc2-c2ccccc21` [Compound 6], for which the results for the pIC50 (against mGAT2; in data set [2] (read-out: NEUROTOXICITY IC50)) were 4.97 and 4.64, respectively. In addition, the pKi on mGAT1 was 4.43. Further, the viability at 24 h, 0.1 µM in data set [1] (HT-22, 0.1 µM) was 99%. In addition, in data set [1] (HT-22, 1 µM), the viability at 24 h, 1 µM amounted to 100%. Further, the viability at 24 h, 10 µM in data set [1] (HT-22, 10 µM) came out at 99%. For the same compound, the viability at 24 h, 50 µM in data set [1] (HT-22, 50 µM) was found to be 9.5%. Besides, the viability at 24 h, 100 µM in data set [1] (HT-22, 100 µM, vs DMSO) stood at 1.7%. Also, the IC50 in data set [2] (read-out: NEUROTOXICITY pIC (converted)) was 22.9 µM.
